Test results as given in ChEMBL document CHEMBL2413072, “Synthesis and in vitro anticancer studies of novel C-2 arylidene congeners of lantadenes” (2013).

Legend:
Type in all cases: functional
NCI-H226 [1] = experiment: Growth inhibition of human NCI-H226 cells by sulforhodamine B assay
K562 = experiment: Growth inhibition of human K562 cells by sulforhodamine B assay
IGROV-1 = experiment: Growth inhibition of human IGROV1 cells assessed as cell growth at 10^-8 M by sulforhodamine B assay; conditions: read-out: Activity
UACC-62 [2] = experiment: Growth inhibition of human UACC62 cells assessed as cell growth at 10^-8 M by sulforhodamine B assay; conditions: read-out: Activity
NCI-H522 = experiment: Growth inhibition of human NCI-H522 cells assessed as cell growth at 10^-8 M by sulforhodamine B assay; conditions: read-out: Activity
NCI-H23 [3] = experiment: Growth inhibition of human NCI-H23 cells assessed as cell growth at 10^-8 M by sulforhodamine B assay; conditions: read-out: Activity
RPMI-8226 = experiment: Growth inhibition of human RPMI8226 cells assessed as cell growth at 10^-8 M by sulforhodamine B assay; conditions: read-out: Activity
UO-31 [4] = experiment: Growth inhibition of human UO31 cells by sulforhodamine B assay
SN12C [5] = experiment: Growth inhibition of human SN12C cells by sulforhodamine B assay
OVCAR-5 = experiment: Growth inhibition of human OVCAR5 cells by sulforhodamine B assay
SK-MEL-28 = experiment: Growth inhibition of human SK-MEL-28 cells by sulforhodamine B assay
M14 = experiment: Growth inhibition of human M14 cells by sulforhodamine B assay
SK-MEL-2 = experiment: Growth inhibition of human SK-MEL-2 cells assessed as cell growth at 10^-4 M by sulforhodamine B assay; conditions: read-out: Activity
SNB-19 [6] = experiment: Growth inhibition of human SNB19 cells assessed as cell growth at 10^-4 M by sulforhodamine B assay; conditions: read-out: Activity
HCT-15 = experiment: Growth inhibition of human HCT15 cells assessed as cell growth at 10^-4 M by sulforhodamine B assay; conditions: read-out: Activity
NCI-H226 [7] = experiment: Growth inhibition of human NCI-H226 cells assessed as cell growth at 10^-4 M by sulforhodamine B assay; conditions: read-out: Activity
HOP-92 = experiment: Growth inhibition of human HOP92 cells assessed as cell growth at 10^-4 M by sulforhodamine B assay; conditions: read-out: Activity
A549 [8] = experiment: Growth inhibition of human A549/ATCC cells assessed as cell growth at 10^-4 M by sulforhodamine B assay; conditions: read-out: Activity
MDA-MB-468 [9] = experiment: Growth inhibition of human MDA-MB-468 cells assessed as cell growth at 10^-6 M by sulforhodamine B assay; conditions: read-out: Activity
[10] = Growth inhibition of human Hs 578T cells assessed as cell growth at 10^-6 M by sulforhodamine B assay; conditions: read-out: Activity
UO-31 [11] = experiment: Growth inhibition of human UO31 cells assessed as cell growth at 10^-6 M by sulforhodamine B assay; conditions: read-out: Activity
[12] = Growth inhibition of human NCI-ADR-RES cells assessed as cell growth at 10^-6 M by sulforhodamine B assay; conditions: read-out: Activity
UACC-62 [13] = experiment: Growth inhibition of human UACC62 cells assessed as cell growth at 10^-6 M by sulforhodamine B assay; conditions: read-out: Activity
SNB-75 = experiment: Growth inhibition of human SNB75 cells assessed as cell growth at 10^-6 M by sulforhodamine B assay; conditions: read-out: Activity
SW-620 [14] = experiment: Growth inhibition of human SW620 cells assessed as cell growth at 10^-6 M by sulforhodamine B assay; conditions: read-out: Activity
NCI-H460 = experiment: Growth inhibition of human NCI-H460 cells assessed as cell growth at 10^-6 M by sulforhodamine B assay; conditions: read-out: Activity
NCI-H23 [15] = experiment: Growth inhibition of human NCI-H23 cells assessed as cell growth at 10^-6 M by sulforhodamine B assay; conditions: read-out: Activity
HOP-62 [16] = experiment: Growth inhibition of human HOP62 cells assessed as cell growth at 10^-6 M by sulforhodamine B assay; conditions: read-out: Activity
A549 [17] = experiment: Growth inhibition of human A549/ATCC cells assessed as cell growth at 10^-6 M by sulforhodamine B assay; conditions: read-out: Activity
MOLT-4 = experiment: Growth inhibition of human MOLT4 cells assessed as cell growth at 10^-6 M by sulforhodamine B assay; conditions: read-out: Activity
MDA-MB-231 = experiment: Growth inhibition of human MDA-MB-231 cells assessed as cell growth at 10^-7 M by sulforhodamine B assay; conditions: read-out: Activity
SNB-19 [18] = experiment: Growth inhibition of human SNB19 cells assessed as cell growth at 10^-7 M by sulforhodamine B assay; conditions: read-out: Activity
SW-620 [19] = experiment: Growth inhibition of human SW620 cells assessed as cell growth at 10^-7 M by sulforhodamine B assay; conditions: read-out: Activity
NCI-H322M = experiment: Growth inhibition of human NCI-H322M cells assessed as cell growth at 10^-7 M by sulforhodamine B assay; conditions: read-out: Activity
NCI-H226 [20] = experiment: Growth inhibition of human NCI-H226 cells assessed as cell growth at 10^-7 M by sulforhodamine B assay; conditions: read-out: Activity
HOP-62 [21] = experiment: Growth inhibition of human HOP62 cells assessed as cell growth at 10^-7 M by sulforhodamine B assay; conditions: read-out: Activity
MDA-MB-468 [22] = experiment: Growth inhibition of human MDA-MB-468 cells assessed as cell growth at 10^-8 M by sulforhodamine B assay; conditions: read-out: Activity
DU-145 = experiment: Growth inhibition of human DU145 cells assessed as cell growth at 10^-8 M by sulforhodamine B assay; conditions: read-out: Activity
SN12C [23] = experiment: Growth inhibition of human SN12C cells assessed as cell growth at 10^-8 M by sulforhodamine B assay; conditions: read-out: Activity
A498 = experiment: Growth inhibition of human A498 cells assessed as cell growth at 10^-8 M by sulforhodamine B assay; conditions: read-out: Activity
[24] = read-out: LC50 (the source's name)
[25] = read-out: pLC50 (the source's name) (converted)

SMILES: C/C=C(/C)C(=O)O[C@@H]1CC(C)(C)C[C@H]2C3=CC[C@@H]4[C@@]5(C)CCC(=O)C(C)(C)[C@@H]5CC[C@@]4(C)[C@]3(C)CC[C@@]12C(=O)O [LANTADENE A]
- GI50 (NCI-H226 [1]; read-out: GI50): 4.71 µM
- LC50 (NCI-H226 [1]; read-out: LC50): > 100 µM
- TGI (NCI-H226 [1]; read-out: TGI): > 100 µM
- GI50 (NCI-H226 [1]; read-out: pGI50 (converted)): 4.68 µM
- LC50 (NCI-H226 [1]; read-out: pLC50 (converted)): > 100 µM
- TGI (NCI-H226 [1]; read-out: pTGI (converted)): > 100 µM
- GI50 (K562; read-out: GI50): 4.72 µM
- LC50 (K562; read-out: LC50): > 100 µM
- TGI (K562; read-out: TGI): > 100 µM
- GI50 (K562; read-out: pGI50 (converted)): 4.68 µM
- LC50 (K562; read-out: pLC50 (converted)): > 100 µM
- TGI (K562; read-out: pTGI (converted)): > 100 µM
- growth at 0.01 µM (IGROV-1): 108%
- growth at 0.01 µM (UACC-62 [2]): 97%
- growth at 0.01 µM (NCI-H522): 109%
- growth at 0.01 µM (NCI-H23 [3]): 100%
- growth at 0.01 µM (RPMI-8226): 102%
- GI50 (UO-31 [4]; read-out: GI50): 3.44 µM
- CC50 (UO-31 [4]; [24]): > 100 µM
- TGI (UO-31 [4]; read-out: TGI): > 100 µM
- GI50 (UO-31 [4]; read-out: pGI50 (converted)): 3.47 µM
- CC50 (UO-31 [4]; [25]): > 100 µM
- TGI (UO-31 [4]; read-out: pTGI (converted)): > 100 µM
- GI50 (SN12C [5]; read-out: GI50): 3.47 µM
- CC50 (SN12C [5]; [24]): > 100 µM
- TGI (SN12C [5]; read-out: TGI): > 100 µM
- GI50 (SN12C [5]; read-out: pGI50 (converted)): 3.47 µM
- CC50 (SN12C [5]; [25]): > 100 µM
- TGI (SN12C [5]; read-out: pTGI (converted)): > 100 µM
- GI50 (OVCAR-5; read-out: GI50): 18.3 µM
- CC50 (OVCAR-5; [24]): > 100 µM
- TGI (OVCAR-5; read-out: TGI): > 100 µM
- GI50 (OVCAR-5; read-out: pGI50 (converted)): 18.2 µM
- CC50 (OVCAR-5; [25]): > 100 µM
- TGI (OVCAR-5; read-out: pTGI (converted)): > 100 µM
- GI50 (SK-MEL-28; read-out: GI50): 12.8 µM
- CC50 (SK-MEL-28; [24]): > 100 µM
- TGI (SK-MEL-28; read-out: TGI): > 100 µM
- GI50 (SK-MEL-28; read-out: pGI50 (converted)): 12.9 µM
- CC50 (SK-MEL-28; [25]): > 100 µM
- TGI (SK-MEL-28; read-out: pTGI (converted)): > 100 µM
- GI50 (M14; read-out: GI50): 4.53 µM
- CC50 (M14; [24]): > 100 µM
- TGI (M14; read-out: TGI): > 100 µM
- GI50 (M14; read-out: pGI50 (converted)): 4.57 µM
- CC50 (M14; [25]): > 100 µM
- TGI (M14; read-out: pTGI (converted)): > 100 µM
- growth at 100 µM (SK-MEL-2): -35%
- growth at 100 µM (SNB-19 [6]): 23%
- growth at 100 µM (HCT-15): 9%
- growth at 100 µM (NCI-H226 [7]): 20%
- growth at 100 µM (HOP-92): -35%
- growth at 100 µM (A549 [8]): 10%
- growth at 1 µM (MDA-MB-468 [9]): 74%
- growth at 1 µM [10]: 91%
- growth at 1 µM (UO-31 [11]): 87%
- growth at 1 µM [12]: 97%
- growth at 1 µM (UACC-62 [13]): 70%
- growth at 1 µM (SNB-75): 88%
- growth at 1 µM (SW-620 [14]): 90%
- growth at 1 µM (NCI-H460): 92%
- growth at 1 µM (NCI-H23 [15]): 97%
- growth at 1 µM (HOP-62 [16]): 98%
- growth at 1 µM (A549 [17]): 80%
- growth at 1 µM (MOLT-4): 89%
- growth at 0.1 µM (MDA-MB-231): 101%
- growth at 0.1 µM (SNB-19 [18]): 89%
- growth at 0.1 µM (SW-620 [19]): 95%
- growth at 0.1 µM (NCI-H322M): 97%
- growth at 0.1 µM (NCI-H226 [20]): 81%
- growth at 0.1 µM (HOP-62 [21]): 95%
- growth at 0.01 µM (MDA-MB-468 [22]): 95%
- growth at 0.01 µM (DU-145): 104%
- growth at 0.01 µM (SN12C [23]): 97%
- growth at 0.01 µM (A498): 83%
